Experimental data taken from publication PMC10564794, “Safety and tolerability of oral vorolanib for neovascular (wet) age-related macular degeneration: a phase I, open-label study” (Eye, 2023).
Like-named read-outs stand apart in the source and are kept apart here.

Tests used:
[1] = test system: participants with advanced cancer; design: method as in PMID 33707933; conditions: US participants with advanced cancer, once daily; cited from earlier work
[2] = test system: participants with nAMD; test: Phase I safety and tolerability of oral vorolanib (adverse events, DLT, MTD); type: in vivo; conditions: for Dose-limiting toxicities (DLT): dose escalation
Procedure: This phase I, open-label study consisting of dose escalation and dose expansion was conducted at 6 Chinese sites (NCT02452385 and CTR20150152). This study was approved by the local institutional review board at each participating site and conducted in accordance with the Declaration of Helsinki. All participants provided written informed consent.
The schedule of procedures is shown in Table S1 in the Supplementary Material. In the dose escalation, participants in each group were assigned to receive ascending doses of vorolanib (25, 50, 75 and 100 mg daily). The dose escalated to the next level in the absence of more than two of eight patients with dose-limiting toxicity (DLT), which was defined as a drug-related safety event during the first cycle (30 days) of treatment that was severe enough to require removal of the participant from the study. The maximum tolerated dose (MTD) was defined as the maximum dose at which no more than two of eight DLTs occurred in the group.
AEs were determined by the investigator per the Common Terminology Criteria for Adverse Events version 4.0.

[3] = Pharmacokinetics of vorolanib after single and multiple dosing; type: in vivo, human; conditions: for half-life / Cmax: arithmetic mean (%CV)
Procedure: In the initial PK evaluation after a single dose, blood samples from participants in the 25 mg group were collected predose (−0.5 h) and at 0.5, 1, 2, 3, 4, 6, 8, 12, 16, 24, 36, and 48 h post-dose; blood samples from participants in the 50 mg and 75 mg groups were collected predose (−0.5 h) and at 0.5, 1, 2, 3, 4, 6, 8, 12, 16, 24, 36, 48, and 72 h post-dose. During continuous dosing, blood in the 50 mg group was obtained on Day 7, Day 14 and Day 21 predose and on Day 30 predose and at 0.5, 1, 2, 3, 4, 6, 8, 12, 16 and 24 h post-dose, while blood in the 75 mg group was obtained on Day 7, Day 14 and Day 21 predose and on Day 30 predose and at 0.5, 1, 2, 3, 4, 6, 8, 12, 16, 24, 36, 48, and 72 h post-dose. The multiple dose data for 25 mg were not collected.
All participants moved from single dosing to multiple daily dosing.

[4] = continuous dose administration, 50 to 75 mg

Cc1[nH]c(/C=C2\C(=O)Nc3ccc(F)cc32)c(C)c1C(=O)N[C@H]1CCN(C(=O)N(C)C)C1 [vorolanib, Vorolanib]
Recommended dose of vorolanib monotherapy [1]: 400 mg
TRAE: Elevated ALT ([2]; 25 mg, N = 16): 3 (18.8%) number of participants (%)
TRAE: Elevated AST ([2]; 25 mg, N = 16): 3 (18.8%) number of participants (%)
TRAE: Elevated blood pressure ([2]; 25 mg, N = 16): 4 (25.0%) number of participants (%)
TRAE: Hair colour changes ([2]; 25 mg, N = 16): 0 number of participants (%)
TRAE: Leucopenia ([2]; 25 mg, N = 16): 1 (6.3%) number of participants (%)
TRAE: Neutropenia ([2]; 25 mg, N = 16): 1 (6.3%) number of participants (%)
TRAE: QT interval prolongation ([2]; 25 mg, N = 16): 2 (12.5%) number of participants (%)
TRAE: Thrombocytopenia ([2]; 25 mg, N = 16): 2 (12.5%) number of participants (%)
TRAE: Elevated ALT ([2]; 50 mg, N = 16): 9 (56.3%) number of participants (%)
TRAE: Elevated AST ([2]; 50 mg, N = 16): 8 (50.0%) number of participants (%)
TRAE: Elevated blood pressure ([2]; 50 mg, N = 16): 6 (37.5%) number of participants (%)
TRAE: Hair colour changes ([2]; 50 mg, N = 16): 4 (25.0%) number of participants (%)
TRAE: Leucopenia ([2]; 50 mg, N = 16): 3 (18.8%) number of participants (%)
TRAE: Neutropenia ([2]; 50 mg, N = 16): 3 (18.8%) number of participants (%)
TRAE: QT interval prolongation ([2]; 50 mg, N = 16): 4 (25.0%) number of participants (%)
TRAE: Thrombocytopenia ([2]; 50 mg, N = 16): 1 (6.3%) number of participants (%)
Dose-limiting toxicities (DLT) ([2]; 75 mg cohort): one
TRAE: Elevated ALT ([2]; 75 mg, N = 8): 5 (62.5%) number of participants (%)
TRAE: Elevated AST ([2]; 75 mg, N = 8): 4 (50.0%) number of participants (%)
TRAE: Elevated blood pressure ([2]; 75 mg, N = 8): 3 (37.5%) number of participants (%)
TRAE: Hair colour changes ([2]; 75 mg, N = 8): 2 (25.0%) number of participants (%)
TRAE: Leucopenia ([2]; 75 mg, N = 8): 3 (37.5%) number of participants (%)
TRAE: Neutropenia ([2]; 75 mg, N = 8): 2 (25.0%) number of participants (%)
TRAE: QT interval prolongation ([2]; 75 mg, N = 8): 1 (12.5%) number of participants (%)
TRAE: Thrombocytopenia ([2]; 75 mg, N = 8): 3 (37.5%) number of participants (%)
Dose-limiting toxicities (DLT) ([2]; 100 mg cohort): one
TRAE: Elevated blood pressure ([2]; 100 mg, N = 1): 0 number of participants (%)
TRAE: Hair colour changes ([2]; 100 mg, N = 1): 0 number of participants (%)
TRAE: Leucopenia ([2]; 100 mg, N = 1): 0 number of participants (%)
TRAE: Neutropenia ([2]; 100 mg, N = 1): 0 number of participants (%)
TRAE: QT interval prolongation ([2]; 100 mg, N = 1): 0 number of participants (%)
TRAE: Thrombocytopenia ([2]; 100 mg, N = 1): 0 number of participants (%)
Drug-related AEs leading to drug discontinuation ([2]; 6 of 41 participants): 14.6%
Fatal TRAEs ([2]; all cohorts): No fatal TRAEs
Ocular TRAEs ([2]; all cohorts): no ocular TRAEs occurred
Participants with at least one AE ([2]; all cohorts, N = 41): 39 (95.1%) participants (%)
Participants with grade 3 or higher TRAEs ([2]; all cohorts, N = 41): 12 (29.3%) participants (%)
Participants with treatment-related adverse events (TRAEs) ([2]; all cohorts, N = 41): 33 (80.5%) participants (%)
Elevated alanine aminotransferase (most common nonocular TRAE) ([2]; all participants): 41.5%
Dose-limiting toxicities (DLTs), total ([2]; dose escalation 25–100 mg daily): two
Maximum tolerated dose ([2]; oral 25–100 mg daily): not reached
Accumulation [3, 4]: no obvious accumulation
Time to steady-state concentration [3, 4]: 4 days
Dose dependence of maximum blood concentration and area under the curve ([3]; doses of 25–50 mg after a single dose): increased linearly in a dose-dependent manner
half-life ([3]; human, plasma, oral, 25 mg, single dose 25 mg, n = 8): 5.9 h
Cmax ([3]; human, plasma, oral, 25 mg, single dose 25 mg, n = 8, read-out: Cmax): 140 ng/mL
Tmax ([3]; human, plasma, oral, 25 mg, single dose 25 mg, n = 8, median (range), read-out: Tmax): 3.03 h
half-life ([3]; human, plasma, oral, 50 mg, multiple doses 50 mg daily, n = 8): 4.9 h
Cmax ([3]; human, plasma, oral, 50 mg, multiple doses 50 mg daily, n = 8, read-out: Cmax,ss): 246 ng/mL
